Structures are written as SMILES. Like-named read-outs stand apart in the source and are kept apart here. Bounds are passed on as bounds.

Assay [1] concerns Staphylococcus aureus strain ATCC 6538P. Kind of assay: Antibacterial screening (MIC) of compounds of Example 2, S. aureus, Mueller-Hinton broth. It counts as cell-based. The settings on record: for MIC: Staphylococcus aureus, ATCC6538P, read-out: Antibacterial activity μg/mL, S.a. Here is the method:
Antibacterial Screening Methodology for Compounds of Example 2
(§1) • All assays used the Staphylococcus aureus strain ATCC 6538P. • Assays described in Chapter 5 additionally used the vancomycin-resistant enterococci and vancomycin-sensitive enterococci strains Ef243, Ef449, Ef820 and Ef487. Culture Media • Mueller-Hinton Broth Medium (MHB): MHB (Oxoid CM405) was prepared with final concentrations of […] MgCl2 and 2 μg/mL CaCl2. Culture medium was pre-warmed for approximately 2-3 h at 37° C. before use. • Mueller-Hinton Agar Medium (MHA): MMB containing 1.5% Agar (Merck Agar 1.01614). Maintenance of Bacteria • From a thawed cryovial, the bacteria was streaked onto MHA and the plate incubated overnight at 37° C. • From this plate, 10 cryovials were prepared by looping several colonies into 0.5 mL of 20% glycerol solution. The cryovials were immediately stored at −140° C. Preparation of Seed Cultures • A cryovial was removed from −140° C. storage and thawed at room temperature. • An MHA plate was streaked with a loopful of bacterial suspension and incubated overnight at 37° C. to create a parent plate (P1). • A daughter plate (D1) was streaked from the parent plate and incubated overnight at 37° C. […] The second parent plate (P2) was used to generate two additional daughter plates using the procedure outlined above before being discarded. • Cryovials were used twice to prepare parent plates (P1 and P2) before being discarded. […] A vancomycin control set (triplicate) and a compound negative control set (triplicate) were also included on each plate (FIG. 1). • The inoculated culture medium was incubated at 37° C. for 30 min, with shaking at 130 rpm. • Using a multichannel pipette, the contents of the first row were mixed before 50 μL was transferred to the second row. The pipette tips were changed and the process repeated by 50 μL of the mixed broth solutions in the second row being transferred to the third row. This process was repeated until the last row contained either the diluted test compound or a control (vancomycin or compound-negative). […] Antibacterial Testing of Compounds of Example 2 Introduction
(§2) The specific testing procedures and protocols are outlined in the section “Antibacterial Screening Methodology for the Compounds of Example 2”.
The antibacterial activity results are measured by minimum inhibitory concentration (MIC), which is the lowest concentration of compound necessary to prevent bacterial growth.

For assay [2], the system named is E.f243. Kind of assay: Antibacterial screening (MIC) of compounds of Example 2, E.f243. The format is cell-based, Enterococcus faecium. Particulars: for MIC: Enterococcus faecium, read-out: Antibacterial activity μg/mL, E.f243. As for the experimental part: as §1, §2
(§3) Vancomycin was used as the standard/control.

Assay [3] relates to E.f449. Kind of assay: Antibacterial screening (MIC) of compounds of Example 2, E.f449. It counts as cell-based, Enterococcus faecium. The settings on record: for MIC: Enterococcus faecium, read-out: Antibacterial activity μg/mL, E.f449. As for the experimental part: as §1, §2, §3
Assay [4] deals with E.f820. Kind of assay: Antibacterial screening (MIC) of compounds of Example 2, E.f820. It counts as cell-based, Enterrococci faecium. The settings on record: for MIC: read-out: Antibacterial activity μg/mL, E.f820. Here is the method: as §1, §2, §3
Assay [5] deals with E.f987. Kind of assay: Antibacterial screening (MIC) of compounds of Example 2, E.f987. It counts as cell-based, Enterococcus faecium. Particulars: for MIC: Enterococcus faecium, read-out: Antibacterial activity μg/mL, E.f987.
Where [6] appears, read: Example 2 compounds (linear cationic peptides), S. aureus, vancomycin-susceptible strain.
The mark [7] stands for this setting: Example 2 compounds, enterococci strain E.f243.
Where [8] appears, read: Example 2 compounds, enterococci strain E.f449.
Setting [9] is: Example 2 compounds, fully vancomycin-resistant strain E.f820.
[10] abbreviates: Example 2 compounds, enterococci strain E.f987.

As to `C=CCOc1ccc2ccccc2c1-c1c(OCC(=O)N[C@H](CCCNC(=N)N)C(=O)Nc2cccc(C(=O)OC)c2)ccc2ccccc12.Cl` (atropisomer, axis not shown) [Compound 156, Methyl(3R)-3-(6-(2-[2′-allyloxy-{1,1′}-(S)-binaphthalen-2-yloxy])-1,4-diaza-3-(3-guanidylpropyl)-2,5-dioxohexyl)benzoate hydrochloride], the MIC was determined as 3.9 µg/mL in assay [1] (setting [6]); 125 µg/mL in assay [2] (setting [7]); 125 µg/mL in assay [3] (setting [8]); 62.5 µg/mL in assay [4] (setting [9]); 62.5 µg/mL in assay [5] (setting [10]).

Turning to `C=CCOc1ccc2ccccc2c1-c1c(OCC(=O)N[C@H](CCCNC(=N)N)C(=O)Nc2cccc(C(=O)OCc3ccccc3)c2)ccc2ccccc12.Cl` (atropisomer, axis not shown) [Compound 158, Benzyl(3R)-3-(6-(2-[2′-allyloxy-{1,1′}-(S)-binaphthalen-2-yloxy])-1,4-diaza-3-(3-guanidylpropyl)-2,5-dioxohexyl)benzoate hydrochloride], the MIC in assay [1] (setting [6]) is 7.8 µg/mL; in assay [2] (setting [7]) it was 62.5 µg/mL; in assay [3] (setting [8]), 62.5 µg/mL; in assay [4] (setting [9]), 31.3 µg/mL; in assay [5] (setting [10]), 62.5 µg/mL.

As for `C=CCOC(=O)c1cccc(NC(=O)[C@@H](CCCNC(=N)N)NC(=O)COc2ccc3ccccc3c2-c2c(OCC=C)ccc3ccccc23)c1.Cl` (atropisomer, axis not shown) [Compound 160, Allyl(3R)-3-(6-(2-[2′-allyloxy-{1,1′}-(S)-binaphthalen-2-yloxy])-1,4-diaza-3-(3-guanidinopropyl)-2,5-dioxohexyl)benzoate hydrochloride], the MIC in assay [1] (setting [6]) stood at 7.8 µg/mL; in assay [2] (setting [7]), 62.5 µg/mL; in assay [3] (setting [8]) it was 62.5 µg/mL; in assay [4] (setting [9]), 62.5 µg/mL; in assay [5] (setting [10]) it was 125 µg/mL.

As to `C=CCOc1ccc2ccccc2c1-c1c(OCC(=O)N[C@H](CCCNC(=N)N)C(=O)Nc2cccc(C(=O)NOCc3ccccc3)c2)ccc2ccccc12.Cl` (atropisomer, axis not shown) [Compound 162], the MIC in assay [1] (setting [6]) was 3.9 µg/mL; in assay [2] (setting [7]) it was above 125 µg/mL; in assay [3] (setting [8]), above 125 µg/mL; in assay [4] (setting [9]), above 125 µg/mL; in assay [5] (setting [10]), above 125 µg/mL.

As for `CCCOc1ccc2ccccc2c1-c1c(OCC(=O)N[C@H](CCCNC(=N)N)C(=O)Nc2cccc(C(=O)NO)c2)ccc2ccccc12.Cl` (atropisomer, axis not shown) [Compound 164], the MIC in assay [1] (setting [6]) is 7.8 µg/mL; in assay [2] (setting [7]), above 125 µg/mL; in assay [3] (setting [8]), above 125 µg/mL; in assay [4] (setting [9]) it was above 125 µg/mL; in assay [5] (setting [10]) it was above 125 µg/mL.

Regarding `C=CC[C@H](NC(=O)[C@H](CCCCN)NC(=O)[C@H](Cc1ccc(-c2c3ccccc3cc3ccccc23)cc1)NC(C)=O)C(=O)OC.Cl` [Compound 118, Methyl(2S,5S,8S)-2-allyl-5-(4-aminobutyl)-8-(4-[9-anthrecenyl]benzyl)-3,6,9-triaza-5-butylamino-4,7,10-trioxoundecanoate hydrochloride], the MIC was 31.3 µg/mL in assay [1] (setting [6]); above 125 µg/mL in assay [2] (setting [7]); above 125 µg/mL in assay [3] (setting [8]); above 125 µg/mL in assay [4] (setting [9]); above 125 µg/mL in assay [5] (setting [10]).

For the compound `C=CC[C@H](NC(=O)[C@H](CCCCN)NC(=O)[C@H](Cc1ccc(-c2cc3ccccc3c3ccccc23)cc1)NC(C)=O)C(=O)OC.Cl` [Compound 119], the MIC in assay [1] (setting [6]) was 15.6 µg/mL; in assay [2] (setting [7]), above 125 µg/mL; in assay [3] (setting [8]), above 125 µg/mL; in assay [4] (setting [9]) it was above 125 µg/mL; in assay [5] (setting [10]), above 125 µg/mL.

As to `C=CC[C@H](NC(=O)[C@@H](CCCNC(=N)N)NC(=O)[C@H](NCCCC)NC(=O)COc1ccc2ccccc2c1-c1c(OCc2ccccc2)ccc2ccccc12)C(=O)OCc1ccccc1.Cl.Cl` [Compound 134, Benzyl(2S,5R,8R)-2-allyl-3,6,9-triaza-11-(2-[2′-benzyloxy-{1,1′}-(S)-binaphthalen-2-yloxy])-8-(butylamino)-5-(3-guanidinopropyl)-4,7,10-trioxoundecanoate dihydrochloride], in assay [1] (setting [6]), the “Antibacterial activity μg/mL, S.a” value was found to be 3.9 µg/mL. For the same compound, the “Antibacterial activity μg/mL, E.f243” value in assay [2] (setting [7]) was found to be 62.5 µg/mL. In assay [3] (setting [8]), the “Antibacterial activity μg/mL, E.f449” value is 62.5 µg/mL. Besides, the “Antibacterial activity μg/mL, E.f820” value in assay [4] (setting [9]) was found to be 62.5 µg/mL. Also, in assay [5] (setting [10]), the “Antibacterial activity μg/mL, E.f987” value was found to be 125 µg/mL.

On to `C=CC[C@H](NC(=O)[C@@H](CCCNC(=N)N)NC(=O)[C@@H](CCCCN)NC(=O)[C@H](Cc1ccc(-c2c3ccccc3cc3ccccc23)cc1)NC(C)=O)C(=O)OCc1ccccc1.Cl.Cl` [Compound 139, Benzyl(2S,5R,8R,11S)-2-allyl-8-(4-aminobutyl)-11-(4-[9-anthracenyl]benzyl)-3,6,9,12-tetraaza-5-(3-guanidinopropyl)-4,7,10,13-tetraoxotetradecanoate], for which the MIC in assay [1] (setting [6]) was 15.6 µg/mL; in assay [2] (setting [7]), above 125 µg/mL; in assay [3] (setting [8]), above 125 µg/mL; in assay [4] (setting [9]), above 125 µg/mL; in assay [5] (setting [10]), above 125 µg/mL.

For `C=CC[C@H](NC(=O)[C@@H](CCCNC(=N)N)NC(=O)[C@@H](CCCCN)NC(=O)[C@H](Cc1ccc(-c2cc3ccccc3c3ccccc23)cc1)NC(C)=O)C(=O)OCc1ccccc1.Cl.Cl` [Compound 140, Benzyl(2S,5R,8R,11S)-2-allyl-8-(4-aminobutyl)-3,6,9,12-tetraaza-5-(3-guanidinopropyl)-4,7,10,13-tetraoxo-11-(4-[9-phenanthrenyl]benzyl)tetradecanoate], the MIC in assay [1] was 7.8 µg/mL; in assay [2] it was above 125 µg/mL; in assay [3], above 125 µg/mL; in assay [4], above 125 µg/mL; in assay [5], above 125 µg/mL.

In the case of `C=CCOc1ccc2ccccc2c1-c1c(OCC(=O)N[C@H](CCCN)C(=O)Nc2cccc(C(=O)OC)c2)ccc2ccccc12.Cl` [Compound 155, Methyl(3R)-3-(6-(2-[2′-allyloxy-{1,1′}-(S)-binaphthalen-2-yloxy])-3-(3-aminopropyl)-1,4-diaza-2,5-dioxohexyl)benzoate hydrochloride], the “Antibacterial activity μg/mL, S.a” value in assay [1] (setting [6]) was determined as 7.8 µg/mL. Also, in assay [2] (setting [7]), the “Antibacterial activity μg/mL, E.f243” value was above 125 µg/mL. For the same compound, the “Antibacterial activity μg/mL, E.f449” value in assay [3] (setting [8]) came out at 125 µg/mL. Further, in assay [4] (setting [9]), the “Antibacterial activity μg/mL, E.f820” value was determined as 125 µg/mL. In addition, in assay [5] (setting [10]), the “Antibacterial activity μg/mL, E.f987” value was above 125 µg/mL.

For the compound `C=CCOc1ccc2ccccc2c1-c1c(OCC(=O)N[C@H](CCCN)C(=O)Nc2cccc(C(=O)OCc3ccccc3)c2)ccc2ccccc12.Cl` [Compound 157, Benzyl(3R)-3-(6-(2-[2′-allyloxy-{1,1′}-(S)-binaphthalen-2-yloxy])-3-(3-aminopropyl)-1,4-diaza-2,5-dioxohexyl)benzoate hydrochloride], in assay [1] (setting [6]), the “Antibacterial activity μg/mL, S.a” value was found to be 15.6 µg/mL. Also, the “Antibacterial activity μg/mL, E.f243” value in assay [2] (setting [7]) is above 125 µg/mL. Moreover, the “Antibacterial activity μg/mL, E.f449” value in assay [3] (setting [8]) is 125 µg/mL. In addition, in assay [4] (setting [9]), the “Antibacterial activity μg/mL, E.f820” value is 125 µg/mL. For the same compound, in assay [5] (setting [10]), the “Antibacterial activity μg/mL, E.f987” value is above 125 µg/mL.

Regarding `C=CCOC(=O)c1cccc(NC(=O)[C@@H](CCCN)NC(=O)COc2ccc3ccccc3c2-c2c(OCC=C)ccc3ccccc23)c1.Cl` [Compound 159, Allyl(3R)-3-(6-(2-[2′-allyloxy-{1,1′}-(S)-binaphthalen-2-yloxy])-3-(3-aminopropyl)-1,4-diaza-2,5-dioxohexyl)benzoate hydrochloride], in assay [1] (setting [6]), the “Antibacterial activity μg/mL, S.a” value turned out to be 62.5 µg/mL. Besides, the “Antibacterial activity μg/mL, E.f243” value in assay [2] (setting [7]) is 125 µg/mL. Further, the “Antibacterial activity μg/mL, E.f449” value in assay [3] (setting [8]) came to 125 µg/mL. For the same compound, the “Antibacterial activity μg/mL, E.f820” value in assay [4] (setting [9]) is 62.5 µg/mL. For the same compound, the “Antibacterial activity μg/mL, E.f987” value in assay [5] (setting [10]) is above 125 µg/mL.
